Values joined by “and” are separate entries in the source; they are usually repeats but may differ in a detail not shown here. Equal entries are not always repeated. “Also recorded” adds a separate entry of the source. Structures can show the parent of a compound that is named as a salt. Where two headings read alike, the source gives them in different places.
How the values were obtained:
[1] = system: LMH cells; assay: Fluorescence-based in vitro drug screening assay; type: cell-based, chicken; details: for Porphyrogenicity / PP accumulation (authors' conclusion in words): with and without DFO; for Fluorescence reading / Fluorescence readings compared with the […] AIA control: 18–24 h; for Fluorescence reading: ex 410/em 625 nm; for Fluorescence readings compared with the […] AIA control: in the presence of DFO, 0–1 mM
[2] = system: HepG2 spheroids; assay: Fluorescence-based in vitro drug screening assay in HepG2 spheroids; type: cell-based, human; details: for Fluorescence reading compared with background: HepG2 organoids/spheroids, 0.5 mM compound with and without DFO
[3] = cited from earlier work; for Maximal plasma concentration: ref 39 (Nagelschmitz et al.), listed as aspirin
[4] = ATPLite cytotoxicity assay in LMH cells; details: chicken, CC50, LMH cells, 18–24 h, presence of 250 μM DFO
[5] = system: hydroxymethylbilane synthase; details: human erythrocytes; cited from earlier work
[6] = system: hydroxymethylbilane synthase; details: rat livers; cited from earlier work
[7] = system: HepG2 cells; assay: Fluorescence-based in vitro drug screening assay; type: cell-based, human; details: 1 mM compound + DFO, 18–24 h
[8] = system: human liver organoids; assay: Fluorescence-based in vitro drug screening assay in human liver organoids; type: cell-based; details: approximately 100 human liver organoids, 0.5 mM compound + DFO, 18–24 h
[9] = system: LMH cells; assay: ATPLite cytotoxicity assay in LMH cells; details: 1 mM compound in the presence of DFO
[10] = LMH cells, 1 mM compound + 250 μM DFO
[11] = LMH cells, […] compound + 250 μM DFO
[12] = humans, typically used oral doses
[13] = 1 mM compound in the presence of DFO

For `CCCC(CCC)C(=O)O` [sodium valproate], the “Porphyrogenicity / PP accumulation (authors' conclusion in words)” value (shortened to “Porphyrogenicity / PP accumulation”) ([1]; LMH cells) was “porphyrogenic”.
For `C[C@]12CC[C@@H]3c4ccc(O)cc4CC[C@H]3[C@@H]1CC[C@@H]2O` [β‐estradiol], the “Porphyrogenicity / PP accumulation” value ([1]; LMH cells) was “notable accumulation of PP”.
With `CCC1(c2ccccc2)C(=O)NC(=O)NC1=O` [phenobarbital] the Fluorescence reading [1, 10] was 7513 ± 48 RFU, the “Fluorescence readings compared with the AIA positive control” value ([1]; LMH cells, concentrations around 0.024 mM) was “close to the AIA positive control” and the “Fluorescence readings compared with the […] AIA control” value ([1]; LMH cells) was “above the 0.314‐mM AIA control”. For the same molecule, the “Fluorescence reading compared with background” value [2] was “failed to produce fluorescence readings above background” and the Maximal serum concentration ([3]; 2.9-mg/kg oral dose, ref 43 (Nelson et al.)) was “approximately 5.5 mg/L; also recorded: around 0.024 mM”.
In the case of `C[C@](N)(Cc1ccc(O)c(O)c1)C(=O)O` [alpha‐methyldopa], the “Porphyrogenicity / PP accumulation” value ([1]; LMH cells) is reported as “did not lead to an appreciable accumulation of PP” and the CC50 [4] is reported as 164 µM.
In the case of `Cc1noc(NS(=O)(=O)c2ccc(N)cc2)c1C` [sulfisoxazole], the “Porphyrogenicity / PP accumulation” value ([1]; LMH cells) is given as “neither of these drugs led to excess PP accumulation”, the “Effect on the activity of hydroxymethylbilane synthase” value [5] is given as “did not affect the activity” and the “Effect on the activity of hydroxymethylbilane synthase” value [6] is given as “did not affect the activity”.
In the case of `C#CC1(O)CC[C@H]2[C@@H]3CCC4=CC(=O)CC[C@@H]4[C@H]3CC[C@@]21CC` (mixture of isomers) [norgestrel, D (‐) norgestrel], the Fluorescence reading [1, 11] is reported as 6890 ± 106 RFU, the “Fluorescence readings compared with the […] AIA control” value ([1]; LMH cells) is reported as “above the 0.314‐mM AIA control” and the “Porphyrogenicity / PP accumulation” value ([1]; LMH cells) is reported as “porphyrogenic; also recorded: notable accumulation of PP”. The Maximal serum concentration [3, 12] was “approximately 14.1 ng/ml”.
For `CC(=O)Nc1ccc(O)cc1` [acetaminophen], the “Porphyrogenicity / PP accumulation” value ([1]; LMH cells) is given as “not porphyrogenic” and the Maximum plasma concentration ([3]; oral 1000-mg tablet, ref 40 (Hong et al.)) is given as “approximately 8.79 mg/L and ~0.058 mM”.
With `NCC(=O)CCC(=O)O` [ALA, 5‐aminolevulinic acid] the “Fold higher fluorescence readings in LMH cells than in HepG2 cells” value [1, 13] was “approximately 2.1 fold”, the “Fold higher fluorescence readings in LMH cells than in HepG2 organoids” value [1, 13] was roughly 1.9 fold and the “Fold higher fluorescence readings in LMH cells than in human liver organoids” value [1, 13] was roughly 7 fold. For the same molecule, the Fluorescence reading [1, 10] was “above 10 000 RFU”, the Fluorescence reading [7] was “above 5000 RFU” and the Fluorescence reading ([2]; approximately 200 HepG2 spheroids, 0.5 mM compound + DFO, 18–24 h) was “above 6000 RFU”. For the same molecule, the Fluorescence reading [8] was “above 1600 RFU” and the “Cytotoxic effect” value [9] was “mild cytotoxic effects”.
For `O=C1NC(=O)C(c2ccccc2)(c2ccccc2)N1` [phenytoin], the Fluorescence reading [1, 11] was 5913 ± 190 RFU, the “Fluorescence readings compared with the […] AIA control” value ([1]; LMH cells) was “above the 0.314‐mM AIA control” and the “Porphyrogenicity / PP accumulation” value ([1]; LMH cells) was “porphyrogenic”. For the same molecule, the “Fluorescence reading compared with background” value [2] was “failed to produce fluorescence readings above background”.
For `CCN(CCO)CCCC(C)Nc1ccnc2cc(Cl)ccc12` (stereo not drawn) [hydroxychloroquine, hydroxychloroquine sulfate], the “Porphyrogenicity / PP accumulation” value ([1]; LMH cells) was “does not upregulate hepatic ALAS‐1” and the CC50 [4] was 381 µM.
In the case of `O=C1NC(=O)C(c2ccccc2)(c2ccccc2)N1` [phenytoin sodium], the Maximal serum concentration ([3]; humans, oral 300-mg dose, ref 44 (Suthisisang et al.)) is given as “approximately 1.98 µg/ml and ~7.22 µM”.
In the case of `CC(=O)Oc1ccccc1C(=O)O` [acetylsalicylic acid], the “Porphyrogenicity / PP accumulation” value ([1]; LMH cells) is listed as “not porphyrogenic”, the Maximal plasma concentration ([3]; intravenous 500-mg dose) is listed as 54.25 mg/L and 0.30 mM and the Maximal plasma concentration ([3]; oral 500-mg dose) is listed as 4.84 mg/L and 0.027 mM.
For `CCCCC(=O)N(Cc1ccc(-c2ccccc2-c2nnn[nH]2)cc1)[C@H](C(=O)O)C(C)C` [valsartan], the “Porphyrogenicity / PP accumulation” value ([1]; LMH cells) was “did not show evidence of porphyrogenicity”.
In the case of `CCCC(CCC)C(=O)O` [valproic acid], the Maximal serum concentration ([3]; humans, typically used oral doses (norgestrel, valproic acid)) is listed as roughly 8.81 mM and the Maximal serum concentration [3, 12] is listed as “approximately 1271 mg/L”.
